# Results reported in patent US20250144187A1, “COMBINATION OF HYDROLASES AND ANTI-MICROORGANISM DRUGS AND USES THEREOF” (CENTRE FOR EYE AND VISION RESEARCH LIMITED, priority 2023, published 2025).
# How the values were obtained:
# MRSA [1] = test: High-throughput screening of 1953 FDA-approved compounds with human lysozyme; assay type: cell-based, Staphylococcus aureus; conditions: compound 25 μM + 1 mg/ml lysozyme, 24-hour
# Protocol: (§1) 1) High-throughput screening. According to standard screening method [Zhong. […] Commun. 11, 523 (2020)], 1953 FDA-approved compounds from our drugs library at a fixed concentrations of 25 μM were screened against methicillin-resistant Staphylococcus aureus (MRSA) and Staphylococcus epidermis (a coagulase negative Staphylococci, MRSE), in combination with human lysozyme. Specifically, these compounds were added into bacterial suspensions (1×10^5 CFU/ml, in LB medium) in the absence or presence of 1 mg/ml lysozyme. LB medium without bacteria served as background group. Then, the real-time growth curvet of MRSA were monitored per hour and for 24 hours. Absorbance at 600 am (OD600) of bacterial culture at the time point of 24-hour was also measured. The inhibition ratio (%) was calculated as (ODcontrol−ODsample)/(ODcontrol−ODbackground)×100%. […] Herein, the relative and apparent inhibition ratios indicated the combination effect and potential toxicity of compound, respectively. Synergy effect was defined as the relative inhibition ratio of ≥90%. All assays were performed in triplicate.
# MRSE [2] = test: as above; assay type: cell-based, Staphylococcus epidermis; conditions: compound 25 μM + 1 mg/ml lysozyme, 24-hour
# Protocol: as §1
# MRSA [3] = test: High-throughput screening of 4989 compounds with human lysozyme; assay type: cell-based, Staphylococcus aureus; conditions: for MRSA Combination / MRSA Drug only: OD600 at 24-hour; for MRSA Combination: compound 2.5 μM + 1 mg/ml lysozyme; for MRSA Drug only: compound 2.5 μM without lysozyme; for MRSA Inhibition ratio (%): compound 2.5 μM + 1 mg/ml lysozyme relative to compound only
# Protocol: 1) High-throughput screening. […] Specifically, these compounds were added into bacterial suspensions (1×10^6 CFU/ml) in the […] microliter plate, in which each well contained 50 μl of lysogeny broth (LB) medium with or without 1 mg/ml lysozyme. LB medium in the absence of bacteria served as background group. Then, the real-time growth curves of MRSA were monitored per hour and for 24 hours. Experiments were performed with the biological replicates. Fly analyzing the absorbance 600 nm (OD600) of bacterial culture at the time point of 24-hour, the inhibition ratio (%) was calculated according to (ODcontrol−ODsample)/(ODcontrol−ODbackground)×100%. Here, the relative and apparent inhibition ratios were figured out by using the absorbance of bacterial suspension only containing compound and that without any drug treatment as ODcontrol, respectively. The relative and apparent inhibition ratios indicated the combination effect and potential toxicity of compound in combination effect. Synergy effect was defined as the relative inhibition ratio of ≥90%.
# MRSE [4] = test: as above; assay type: cell-based, Staphylococcus epidermis; conditions: for MRSE Combination / MRSE Drug only: OD600 at 24-hour; for MRSE Combination: compound 2.5 μM + 1 mg/ml lysozyme; for MRSE Drug only: compound 2.5 μM without lysozyme; for MRSE Inhibition ratio (%): compound 2.5 μM + 1 mg/ml lysozyme relative to compound only
Molecule,"Growth inhibition ratio (mean ± SD, %) MRSA (MRSA [1]) [%]","Growth inhibition ratio (mean ± SD, %) MRSE (MRSE [2]) [%]",MRSA Combination (MRSA [3]),MRSA Drug only (MRSA [3]),MRSA Inhibition ratio (%) (MRSA [3]),MRSE Combination (MRSE [4]),MRSE Drug only (MRSE [4]),MRSE Inhibition ratio (%) (MRSE [4])
N#C/C(=C1/SC[C@@H](c2ccc(Cl)cc2Cl)S1)n1ccnc1 [Luliconazole],−9.69 ± 5.58,22.39 ± 10.76,,,,,,
CO[C@@]12[C@H](COC(N)=O)C3=C(C(=O)C(C)=C(N)C3=O)N1C[C@@H]1N[C@@H]12 [Mitomycin C],66.02 ± 45.26,39.12 ± 43.57,,,,,,
C[C@@H](O)[C@H]1C(=O)N2C(C(=O)O)=C(S[C@@H]3CN[C@H](C(=O)N(C)C)C3)[C@H](C)[C@H]12 [Meropenem Trihydrate],48.19 ± 11.14,20.45 ± 65.79,,,,,,
CC(C)(O/N=C(\C(=O)N[C@@H]1C(=O)N2C(C(=O)[O-])=C(C[n+]3ccccc3)CS[C@H]12)c1csc(N)n1)C(=O)O [Ceftazidime Pentahydrate],45.07 ± 6.86,34.84 ± 3.23,,,,,,
C[C@@H](O)[C@H]1C(=O)N2C(C(=O)O)=C(S[C@@H]3CN[C@H](CNS(N)(=O)=O)C3)[C@H](C)[C@H]12 [Doripenem Hydrate],82.4 ± 5.63,11.18 ± 6.16,,,,,,
"CCOC(=O)c1ccc(O)c(O)c1 [Ethyl 3,4-dihydroxybenzoate]",,,0.064,0.5805,97.54,0.0703,0.6328,96.68
CCCCCCNC(=O)n1cc(F)c(=O)[nH]c1=O [Carmofur],82.5 ± 7.73,78.06 ± 11.38,,,,,,
CNC[C@H](O)[C@@H](O)[C@H](O)[C@H](O)CO.Nc1nc(-n2cc(C(=O)O)c(=O)c3cc(F)c(N4CC(O)C4)c(Cl)c32)c(F)cc1F [Delafloxacin (meglumine)],,,0.0629,0.177,90.56,0.0639,0.1374,
CC1(C)S[C@@H]2[C@H](NC(=O)[C@H](NC(=O)N3CCN(S(C)(=O)=O)C3=O)c3ccccc3)C(=O)N2[C@H]1C(=O)O [Mezlocillin Sodium],90.46 ± 1.59,6.93 ± 8.22,,,,,,
CO[C@H]1/C=C/O[C@@]2(C)Oc3c(C)c(O)c4c(c3C2=O)C(=O)C=C(NC(=O)/C(C)=C\C=C\[C@H](C)[C@H](O)[C@@H](C)[C@@H](O)[C@@H](C)[C@H](OC(C)=O)[C@@H]1C)C4=O [Rifamycin S],,,0.074,0.1545,77.78,0.0967,0.5935,91.58
CO/N=C(\C(=O)N[C@@H]1C(=O)N2C(C(=O)O)=C(Cn3ccc(=N)n3CCO)CS[C@H]12)c1csc(N)n1.O=S(=O)(O)O [Cefoselis Sulfate],40.55 ± 6.2,51.56 ± 10.39,,,,,,
COC(=O)[C@]12CCC(C)(C)C[C@H]1[C@H]1C(=O)C=C3[C@@]4(C)C=C(C#N)C(=O)C(C)(C)[C@@H]4CC[C@@]3(C)[C@]1(C)CC2 [Bardoxolone Methyl],29.95 ± 40.66,81.67 ± 1.61,,,,,,
CC1(C)S[C@@H]2[C@H](NC(=O)[C@H](N)c3ccccc3)C(=O)N2[C@H]1C(=O)OCOC(=O)[C@@H]1N2C(=O)C[C@H]2S(=O)(=O)C1(C)C [Sultamicillin],58.05 ± 16.75,45.94 ± 13.49,,,,,,
"CC(=O)c1c(O)cc(O)c(C(C)=O)c1O [2,4-Diacetylphloroglucinol]",,,0.0588,0.2097,95.09,0.0686,0.09,54.87
CO/N=C(\C(=O)N[C@@H]1C(=O)N2C(C(=O)O)=C(CSc3nc(=O)c(=O)[nH]n3C)CS[C@H]12)c1csc(N)n1 [Ceftriaxone Sodium],8.83 ± 1.45,34.56 ± 35.01,,,,,,
CC/C=C(\C(=O)N[C@@H]1C(=O)N2C(C(=O)OCOC(=O)C(C)(C)C)=C(COC(N)=O)CS[C@H]12)c1csc(N)n1.Cl [Cefcapene Pivoxil Hydrochloride],18.64 ± 7.49,3.23 ± 3.04,,,,,,
SCP1-IN-1,,,0.0766,0.1762,79.55,0.0698,0.1091,67.64
CCN1CCN(C(=O)N[C@@H](C(=O)N[C@@H]2C(=O)N3C(C(=O)O)=C(CSc4nnnn4C)CS[C@H]23)c2ccc(O)cc2)C(=O)C1=O [Cefoperazone],71.74 ± 5.27,−16.2 ± 8.93,,,,,,
C#Cc1cccc(Nc2nc3ccccc3nc2Nc2cccc(C#C)c2)c1.Cl.Cl [TD52 (dihydrochloride)],,,0.0926,0.6512,93.07,0.1057,0.402,
CC1(C)S[C@@H]2[C@H](NC(=O)Cc3ccccc3)C(=O)N2[C@H]1C(=O)O [Benzylpenicillin potassium],48.39 ± 51.84,3.07 ± 4.93,,,,,,
CC1=C(C(=O)O)N2C(=O)[C@@H](NC(=O)[C@H](N)C3=CCC=CC3)[C@H]2SC1 [Cefradine],48.66 ± 13.26,33.52 ± 23.07,,,,,,
Sertaconazole (nitrate),,,0.2603,0.593,61.38,0.079,0.4977,93.73
CC[C@H]1OC(=O)C[C@@H](O)[C@H](C)[C@@H](O[C@@H]2O[C@H](C)[C@@H](O)[C@H](N(C)C)[C@H]2O)[C@@H](CCN2C[C@H](C)C[C@H](C)C2)C[C@@H](C)C(=O)/C=C/C(C)=C/[C@@H]1CO[C@@H]1O[C@H](C)[C@@H](O)[C@@H](OC)[C@H]1OC [Tilmicosin],91.59 ± 0.63,4.91 ± 8.1,,,,,,
CCC(=O)c1ccc(O)cc1 [Paroxypropione],,,0.0655,0.3624,95.34,0.0445,0.5254,101.37
[H]/N=C(\N/C(=N/[H])NCCCCCCNC(=N)NC(=N)Nc1ccc(Cl)cc1)Nc1ccc(Cl)cc1 [Chlorhexidine 2HCl],94.16 ± 0.25,12.3 ± 18.27,,,,,,
CO[C@@]1(NC(=O)CSCC#N)C(=O)N2C(C(=O)O)=C(CSc3nnnn3C)CS[C@@H]21 [Cefmetazole sodium],58.25 ± 13.23,6 ± 29.05,,,,,,
